The results in this text go back to patent US6340755B1, “5H-Pyrano[2,3-d: 6,5-d']dipyrimidine derivatives having an antibacterial, antiviral and immuno-modulating activity” (Natural Drug Sciences LLC, priority 2000, dated 2002).

What all share (format): cell-based
The test system of data set [1] is primary culture of human lymphocytes. Put plainly: Interferon-inducing activity in primary culture of human lymphocytes (immunoenzyme IFN determination). Also noted: unit of the concentration uncertain. To be noted: 24 hours of incubation. As for the experimental part:
Interferon synthesis induction by the claimed preparations was conducted on a primary culture of human lymphocytes (the cells in the human body are the main producers of interferon). To obtain a culture of the lymphocytes we used fresh blood (12 hours after collection) from healthy […] (not from the second group).
The lymphocyte concentration was determined after staining with methyl blue and the number of cells in the Goryaev chamber was calculated. […] The final concentration of the lymphocytes in the induction mixture was 3·10^6 cells/ml. The following controls were processed in parallel with the test samples:
The control and the experimental samples were incubated for 24 hours at 37° C. Following incubation the samples were centrifuged at 2000 g to settle out the cellular elements and the INF-containing supernatant was taken from the samples and analyzed for INF content. The cell residue was resuspended in the same volume of nutrient medium, stained with a vital dye—trypan blue—and the number of cells in the Goryaev chamber was calculated (as described above) to determine the cytotoxic activity of the preparations.
For the quantitative determination of INF in the control and experimental samples we used the ProCon IF2 Plus immunoenzyme test system sold by TOO Proteinovyi Kontur. To determine the quantity of interferon s in the sample we used a solid-phase immunoenzyme method utilizing horseradish peroxidase as the enzyme indicator. The activity of the bound peroxidase was measured using an automated photometer at a wavelength of 450 nm for the microplanchets with a microprocessor. […] On the basis of the results obtained we plotted a calibration curve that allowed us to obtain data expressed in International Units (IU) from the microprocessor of the automated photometer. The results of the analysis are expressed in IU of activity of INF per ml in the given induction system containing 3·10^6 lymphocytes/ml. Every experimental and control point was studied in 4 parallel runs.
The results obtained were analyzed statistically using the t-test and the confidence interval at p=0.05 was calculated. Analysis of the convergence of the results of the parallel tests were performed.

For a further data set, the system named is C. trachomatis D323. In words: Activity on Chlamydia trachomatis in McCoy and L929 cell cultures. To be noted: 48 hours; for number of cells in 100 fields (unchanged cells): cell control 8000, infected cell control 6400. As for the experimental part: The antimicrobial activity of the claimed compounds was studied on C. trachomatis […]-a standard strain from the collection of the Department of Microbiology of the Pavlov St.-Petersburg State University. This strain was isolated from a patient with […] urethritis. […] In the work reported here we used McCoy and L929 cell cultures obtained from the Institute of Cytology of the Russian Academy of Sciences. The cells were grown in flasks of neutral glass in RPMI-1640 medium with an addition of 10% fetal calf serum. The experiment was placed in glass (toxicity-free) flat-bottomed flasks and covered with glass. The cells were introduced into the medium in a final concentration of 1·10 cells/ml. […] The sample was centrifuged at 2400 g for 60 min at room temperature and incubated at 37° C. for 2 hours. […] A parallel series of samples was run using medium without the cycloheximide in order to avoid its influence on the test substances. The samples were incubated for 48 hours in a CO2 incubator. […] The results were evaluated from the detection of chlamydia cytoplasmatic inclusion by an immunoenzyme method (MicroTrac Chlamydia trachomatis Direct Specimen Test) and from chlamydia antigens using CylaMonoScreen (Russian-British Joint Venture, 66 Regent's Park Road, London NW 1 7SX).

Another data set concerns Vero cell culture. Put plainly: Control of compounds (toxicity of compounds) in the herpes experiment. The settings on record: Vero cells. As for the experimental part: (§1) The antiviral activity was studied relative to the virus herpes simplex type I (VPG-I/Leningrad/248/88) by a standard method. The virus was grown on a reinoculated Vero cell culture obtained from the cell culture bank of the Institute of Cytology of the Russian Academy of Sciences.
To cells grown on medium RPMI-1640 with 10% calf serum and placed in the wells of a 96-well plate, the virus was added to give a final concentration of 10 particles/ml and […] We used 5 individual wells for every concentration tested. The plate was incubated for 60 min at 38° C. in a CO2 incubator. After incubation the virus was removed and new medium was added that contained the claimed compounds in the test concentrations.
4. Control of compounds (toxicity of compounds).

The subject of data set [2] is McCoy and L929 cell cultures. In words: Control of the test compounds on toxicity relative to cell cultures in the chlamydia experiment. As for the experimental part: In the work reported here we used McCoy and L929 cell cultures obtained from the Institute of Cytology of the Russian Academy of Sciences. The cells were grown in flasks of neutral glass in RPMI-1640 medium with an addition of 10% fetal calf serum. The experiment was placed in glass (toxicity-free) flat-bottomed flasks and covered with glass. The cells were introduced into the medium in a final concentration of 1·10 cells/ml. After a monolayer was obtained, standard infectious doses of chlamydia that had been maintained in a frozen state at −70° C. were added to test tubes. […] The sample was centrifuged at 2400 g for 60 min at room temperature and incubated at 37° C. for 2 hours. […] A parallel series of samples was run using medium without the cycloheximide in order to avoid its influence on the test substances. The samples were incubated for 48 hours in a CO2 incubator.

Data set [3] has as its system herpes simplex type I (VPG-I/Leningrad/248/88). In words: Activity on herpes simplex virus: cytopathic action of the virus on Vero cells. The settings on record: 36 hours; for number of cells in 100 fields (unchanged cells): cell control 12000. How it is done:
as §1
To cells grown on medium RPMI-1640 with 10% calf serum and placed in the wells of a 96-well plate, the virus was added to give a final concentration of 10 particles/ml and the claimed compounds dissolved in DMSO were added to give a final concentrations of 100, 10, and 1 mg/l. We used 5 individual wells for every concentration tested. The plate was incubated for 60 min at 38° C. in a CO2 incubator. After incubation the virus was removed and new medium was added that contained the claimed compounds in the test concentrations.
The results were evaluated according to the existence of a cytopathic action of the virus on the cells after 36 hours of incubation at 38° C. in the CO2 incubator.
The following controls were used in the experiment:
3. Control of antiviral activity of an antiviral preparation—acylcovir.
To access the cytopathic effect of the virus, we counted the number of unchanged cells in 100 fields formed by a specialized grid on the eyepiece of the inversion microscope.

As to `Oc1nc(O)c2c(n1)Oc1nc(O)nc(O)c1C2` [IV], the figures for the “Interferon-inducing activity of the drug; content of INF in induction mixture” value (from here on “Interferon-inducing activity of the drug”) in data set [1] (1 (unit uncertain)), in data set [1] (10 (unit uncertain)) and in data set [1] (100 (unit uncertain)) were 3.8 ± 1.5 IU/3 · 10^4 lymp/ml, 29.9 ± 2.0 IU/3 · 10^4 lymp/ml and 74.0 ± 1.8 IU/3 · 10^4 lymp/ml, respectively. In addition, the “percent protection of the cells against infection” value in the data set on C. trachomatis D323 (30 mg/l) is recorded as 40%. Further, in the data set with C. trachomatis D323 (30 mg/l), the “number of cells in 100 fields (unchanged cells)” value (shortened to “number … (unchanged cells)”) was found to be 7040. Besides, the values for the cytotoxicity of compound result (in the data set on Vero cell culture (100 mg/l); in data set [2] (100 mg/l)) were “Cytotoxic” and “cytotoxic”, respectively.

Regarding `COc1nc(O)nc2c1C(c1ccc([N+](=O)[O-])cc1)c1c(OC)nc(O)nc1O2` [V, 2,8-Dihydroxy-4,6-dimethoxy-5-(4-nitrophenyl)-5H-pyrano[2,3-d:6,5-d′]dipyrimidine], in data set [3] (100 mg/l), the “percent protection of the cells against the virus compared to the cell culture control” value (from here on “percent protection … to the cell culture control”) was determined as 50%. In data set [3] (100 mg/l), the “number … (unchanged cells)” value is listed as 6000. Also, the “Interferon-inducing activity of the drug” value in data set [1] (1 (unit uncertain)) was found to be 10.5 ± 2.5 IU/3 · 10^4 lymp/ml; in data set [1] (10 (unit uncertain)) it was 50.6 ± 1.8 IU/3 · 10^4 lymp/ml; in data set [1] (100 (unit uncertain)) it was 108.9 ± 2.0 IU/3 · 10^4 lymp/ml. The cytotoxicity of compound result in data set [2] (100 mg/l) is reported as “cytotoxic”.

As to `Oc1nc(O)c2c(n1)Oc1nc(O)nc(O)c1C2c1ccc(Cl)cc1` [VI], in data set [3] (100 mg/l), the “percent protection … to the cell culture control” value is on record as 50%. The figures for the “number … (unchanged cells)” value (in data set [3] (100 mg/l); with C. trachomatis D323 (100 mg/l)) were 6000 and 6560, respectively. Further, the “Interferon-inducing activity of the drug” value in data set [1] (1 (unit uncertain)) is 6.5 ± 1.4 IU/3 · 10^4 lymp/ml; in data set [1] (10 (unit uncertain)) it was 36.9 ± 1.2 IU/3 · 10^4 lymp/ml; in data set [1] (100 (unit uncertain)) it was 92.2 ± 2.1 IU/3 · 10^4 lymp/ml. The “percent protection of the cells against infection” value in the data set with C. trachomatis D323 (100 mg/l) is 15%.

With `Oc1nc(O)c2c(n1)Oc1nc(O)nc(O)c1C2c1ccc(I)cc1` [III], in data set [3] (100 mg/l), the “percent protection … to the cell culture control” value amounted to 40%. For the same molecule, the “number … (unchanged cells)” value in data set [3] (100 mg/l) was found to be 4800. For the same molecule, the figures for the “Interferon-inducing activity of the drug” value in data set [1] (1 (unit uncertain)), in data set [1] (10 (unit uncertain)) and in data set [1] (100 (unit uncertain)) were 56.5 ± 1.0 IU/3 · 10^4 lymp/ml, 112.6 ± 2.0 IU/3 · 10^4 lymp/ml and 243.2 ± 1.0 IU/3 · 10^4 lymp/ml, respectively.

Turning to `Nc1nc2c(ncn2COCCO)c(=O)[nH]1` [Acyclovir, reference compound], in data set [3] (10 mg/l), the “percent protection … to the cell culture control” value turned out to be 80% and the “number … (unchanged cells)” value turned out to be 9600.

Regarding `O=[N+]([O-])c1ccc(C2c3c(O)nc(S)nc3Oc3nc(S)nc(O)c32)cc1` [IX, 4-6-Dihydroxy-2,8-dimercapto-5-(p-nitrophenyl)-5H-pyrano[2,3-d:6,5-d′]dipyrimidine], the “percent protection … to the cell culture control” value in data set [3] (100 mg/l) is listed as 40%. The “number … (unchanged cells)” value in data set [3] (100 mg/l) came out at 4800; in the data set with C. trachomatis D323 (100 mg/l), 7360. Moreover, the “Interferon-inducing activity of the drug” value is 6.8 ± 2.0 IU/3 · 10^4 lymp/ml in data set [1] (1 (unit uncertain)), 28.0 ± 2.5 IU/3 · 10^4 lymp/ml in data set [1] (10 (unit uncertain)) and 64.0 ± 1.8 IU/3 · 10^4 lymp/ml in data set [1] (100 (unit uncertain)). Also, the “percent protection of the cells against infection” value with C. trachomatis D323 (100 mg/l) came to 60%.

As for `Clc1nc(Cl)c2c(n1)Oc1nc(Cl)nc(Cl)c1C2c1ccccc1` [II, 5-Phenyl-2,4,6,8-tetrachloro-5H-pyrano[2,3-d:6,5-d′]dipyrimidine], the “Interferon-inducing activity of the drug” value came out at 2.0 ± 0.4 IU/3 · 10^4 lymp/ml in data set [1] (1 (unit uncertain)), 16.0 ± 0.8 IU/3 · 10^4 lymp/ml in data set [1] (10 (unit uncertain)) and 40.0 ± 1.4 IU/3 · 10^4 lymp/ml in data set [1] (100 (unit uncertain)). Moreover, the cytotoxicity of compound result in the data set with Vero cell culture (50 mg/l) was “Cytotoxic”; in the data set with Vero cell culture (100 mg/l), “Cytotoxic”; in data set [2] (30 mg/l) it was “cytotoxic”; in data set [2] (100 mg/l) it was “cytotoxic”.

As to `Oc1nc(O)c2c(n1)Oc1nc(O)nc(O)c1C2c1ccc(Br)cc1` [VII], the “percent protection … to the cell culture control” value in data set [3] (100 mg/l) is given as 30%. Further, the “number … (unchanged cells)” value in data set [3] (100 mg/l) worked out at 3600. Besides, the “Interferon-inducing activity of the drug” value is given as 5.6 ± 1.6 IU/3 · 10^4 lymp/ml in data set [1] (1 (unit uncertain)), 10.6 ± 1.8 IU/3 · 10^4 lymp/ml in data set [1] (10 (unit uncertain)) and 22.2 ± 1.4 IU/3 · 10^4 lymp/ml in data set [1] (100 (unit uncertain)). Also, the cytotoxicity of compound entry in data set [2] (100 mg/l) is “cytotoxic”.
